Results from article PMC6804243, “Small-Molecule Inhibition of UBE2T/FANCL-Mediated Ubiquitylation in the Fanconi Anemia Pathway” (ACS Chemical Biology, 2019).

Legend:
[1] = system: U2OS cells; assay: Cell cycle analysis based on EdU incorporation; conditions: for S-phase indices: CU1 200 μM or CU2 500 μM
Procedure: Figure 3 Cell-based assays with CU1 and CU2: (a) Western blot showing that the formation of mUb-FANCD2(*), in response to HU treatment (2.5 mM, 8 h), is impaired in U2OS cells in the presence of CU1 (200 μM) or CU2 (500 μM). Ratio = mUb-FANCD2/FANCD2 (normalized to DMSO control). mUb-FANCD2 was resolved on a separate gel. PARP1 was used as a loading control for each gel, as well as to assess apoptosis. (b) Quantification of the reduction in mUb-FANCD2, in response to HU treatment (2.5 mM, 8 h) in the presence of CU1 (200 μM) or CU2 (500 μM). Mean calculated from three independent experiments. (c) Western blot showing that formation of mUb-FANCD2 (denoted by an asterisk symbol, *) in response to cisplatin treatment (10 μM) for 6, 12, and 24 h is impaired in U2OS cells in the presence of CU2 (500 μM). Ratio = mUb-FANCD2/FANCD2 (normalized to DMSO control). (d) Cell cycle analyses based upon EdU incorporation in cells treated with HU (2.5 mM, 8 h) in the presence or absence of CU1 (200 μM) or CU2 (500 μM). HU treatment was used for gating purposes. […] TEXT PRINTED IN THE PICTURE: (d) DMSO: S-phase 42.7; G1 29.2; G2-M 27.8 | (d) HU: S-phase 0.24; G1 72.4; G2-M 22.9 | (d) CU1: S-phase 43.4; G1 26.8; G2-M 29.1 | (d) CU2: S-phase 39.7; G1 31.9; G2-M 28.2 DOUBTS OF THE COPYIST ABOUT THIS PICTURE: Panel d print is small, so these digits are best readings: DMSO G2-M 27.8 (8 or 6); CU1 G1 26.8 (6 or 8); CU2 S-phase 39.7 (9 or 8); CU2 G2-M 28.2 (8 or 6) / Panels a and c: the lane ratios printed under the western blots (a: 1.0, 0.64, 0.40; c: 1.0/0.65, 1.0/0.63, 1.0/0.53) were left out because they belong to blots and the picture prints no measure for them […]
As DNA damage induced by HU is cell-cycle-dependent, it was necessary to establish whether CU1 and CU2 might simply prevent cells from entering the S-phase, which would also manifest itself as a reduction in mUb-FANCD2. This was determined by analysis of several biomarkers linked to DNA damage in cycling cells. […]

[2] = system: U2OS cells; assay: Tolerance / cytotoxicity of compounds in U2OS cells; format: cell-based; conditions: compound at 500 μM, 8 h assay
Procedure: U2OS cells were treated with HU and the formation of mUb-FANCD2 in the presence of CU 1, CU2, and CU9 was evaluated relative to a DMSO control. Following a 1-h preincubation with the compounds, cells were treated with 2.5 mM of HU for 24 h. […] Accordingly, cells were treated with a higher concentration of compounds in further experiments.

Row | SMILES | EdU incorporation intensity ([1]; CU1 200 μM) | S-phase indices [1] | tolerance by cells [2]
1 | NCCN1C(=O)CC[C@H]2CN(Cc3cccc(-c4ccco4)c3)CC[C@H]21 [CU1] | slightly lower | no reduction in S-phase indices | –
2 | CCN1CCN(c2cc(C)nc3nc(CN4CCCCC4C)nn23)CC1 (centres unmarked) [CU2] | – | no reduction in S-phase indices | tolerated
3 | Cc1nnc(N(C)CC2CCN(CC(C)O)CC2)c(C#N)c1C (centres unmarked) [CU9] | – | – | tolerated
